Results taken from ChEMBL document CHEMBL4229455, “Synthesis and anticancer activity of novel bisindolylhydroxymaleimide derivatives with potent GSK-3 kinase inhibition” (Bioorg Med Chem, 2018).

Legend:
Assay type in all cases: functional
[1] = system: NCI-H460; test: Cytotoxicity against human NCI-H460 cells after 48 hrs by SRB assay; conditions: NCI-H460, 48 h
[2] = system: HCT-116; test: Cytotoxicity against human HCT116 cells assessed as cell growth at 0.01 uM after 48 hrs by SRB assay relative to control; conditions: HCT-116, 48 h, read-out: Activity
[3] = system: SNB-19; test: Cytotoxicity against human SNB19 cells assessed as cell growth at 1 uM after 48 hrs by SRB assay relative to control; conditions: SNB-19, 48 h, read-out: Activity
[4] = system: OVCAR-8; test: Cytotoxicity against human OVCAR8 cells after 48 hrs by SRB assay; conditions: OVCAR-8, 48 h
[5] = system: A549; test: Cytotoxicity against human A549 cells assessed as cell growth at 100 uM after 48 hrs by SRB assay relative to control; conditions: A549, 48 h, read-out: Activity
[6] = system: OVCAR-8; test: Cytotoxicity against human OVCAR8 cells assessed as cell growth at 0.1 uM after 48 hrs by SRB assay relative to control; conditions: OVCAR-8, 48 h, read-out: Activity
[7] = system: A498; test: Cytotoxicity against human A498 cells assessed as cell growth at 0.1 uM after 48 hrs by SRB assay relative to control; conditions: A498, 48 h, read-out: Activity
[8] = system: SK-MEL-28; test: Cytotoxicity against human SK-MEL-28 cells assessed as cell growth at 0.01 uM after 48 hrs by SRB assay relative to control; conditions: SK-MEL-28, 48 h, read-out: Activity
[9] = system: NCI-H460; test: Cytotoxicity against human NCI-H460 cells assessed as cell growth at 100 uM after 48 hrs by SRB assay relative to control; conditions: NCI-H460, 48 h, read-out: Activity
[10] = system: SK-MEL-5; test: Cytotoxicity against human SK-MEL-5 cells assessed as cell growth at 100 uM after 48 hrs by SRB assay relative to control; conditions: SK-MEL-5, 48 h, read-out: Activity
[11] = system: A498; test: Cytotoxicity against human A498 cells assessed as cell growth at 1 uM after 48 hrs by SRB assay relative to control; conditions: A498, 48 h, read-out: Activity
[12] = system: IGROV-1; test: Cytotoxicity against human IGROV1 cells after 48 hrs by SRB assay; conditions: IGROV-1, 48 h
[13] = system: IGROV-1; test: Cytotoxicity against human IGROV1 cells assessed as cell growth at 1 uM after 48 hrs by SRB assay relative to control; conditions: IGROV-1, 48 h, read-out: Activity
[14] = system: K562; test: Cytotoxicity against human K562 cells assessed as cell growth at 100 uM after 48 hrs by SRB assay relative to control; conditions: K562, 48 h, read-out: Activity
[15] = system: ACHN; test: Cytotoxicity against human ACHN cells assessed as cell growth at 0.01 uM after 48 hrs by SRB assay relative to control; conditions: read-out: Activity
[16] = system: TK-10; test: Cytotoxicity against human TK10 cells assessed as cell growth at 0.01 uM after 48 hrs by SRB assay relative to control; conditions: TK-10, 48 h, read-out: Activity
[17] = system: HT-29; test: Cytotoxicity against human HT-29 cells after 48 hrs by SRB assay; conditions: HT-29, 48 h
[18] = system: DU-145; test: Cytotoxicity against human DU145 cells assessed as cell growth at 0.01 uM after 48 hrs by SRB assay relative to control; conditions: DU-145, 48 h, read-out: Activity
[19] = system: MDA-MB-231; test: Cytotoxicity against human MDA-MB-231 cells assessed as cell growth at 0.01 uM after 48 hrs by SRB assay relative to control; conditions: MDA-MB-231, 48 h, read-out: Activity
[20] = system: A549; test: Cytotoxicity against human A549 cells assessed as cell growth at 1 uM after 48 hrs by SRB assay relative to control; conditions: A549, 48 h, read-out: Activity
[21] = system: NCI-H23; test: Cytotoxicity against human NCI-H23 cells assessed as cell growth at 0.01 uM after 48 hrs by SRB assay relative to control; conditions: NCI-H23, 48 h, read-out: Activity
[22] = system: HCC 2998; test: Cytotoxicity against human HCC2998 cells assessed as cell growth at 0.1 uM after 48 hrs by SRB assay relative to control; conditions: HCC 2998, 48 h, read-out: Activity
[23] = system: DU-145; test: Cytotoxicity against human DU145 cells assessed as cell growth at 0.1 uM after 48 hrs by SRB assay relative to control; conditions: DU-145, 48 h, read-out: Activity
[24] = system: HT-29; test: Cytotoxicity against human HT-29 cells assessed as cell growth at 0.1 uM after 48 hrs by SRB assay relative to control; conditions: HT-29, 48 h, read-out: Activity
[25] = system: T47D; test: Cytotoxicity against human T47D cells after 48 hrs by SRB assay
[26] = system: NCI-H226; test: Cytotoxicity against human NCI-H226 cells assessed as cell growth at 100 uM after 48 hrs by SRB assay relative to control; conditions: NCI-H226, 48 h, read-out: Activity
[27] = system: OVCAR-3; test: Cytotoxicity against human OVCAR3 cells assessed as cell growth at 100 uM after 48 hrs by SRB assay relative to control; conditions: OVCAR-3, 48 h, read-out: Activity
[28] = system: SR; test: Cytotoxicity against human SR cells after 48 hrs by SRB assay
[29] = system: HCT-116; test: Cytotoxicity against human HCT116 cells assessed as cell growth at 0.1 uM after 48 hrs by SRB assay relative to control; conditions: HCT-116, 48 h, read-out: Activity
[30] = system: MDA-MB-468; test: Cytotoxicity against human MDA-MB-468 cells assessed as cell growth at 1 uM after 48 hrs by SRB assay relative to control; conditions: MDA-MB-468, 48 h, read-out: Activity
[31] = system: SF-268; test: Cytotoxicity against human SF268 cells assessed as cell growth at 1 uM after 48 hrs by SRB assay relative to control; conditions: SF-268, 48 h, read-out: Activity
[32] = system: COLO 205; test: Cytotoxicity against human COLO205 cells assessed as cell growth at 1 uM after 48 hrs by SRB assay relative to control; conditions: COLO 205, 48 h, read-out: Activity
[33] = system: MDA-MB-231; test: Cytotoxicity against human MDA-MB-231 cells after 48 hrs by SRB assay; conditions: MDA-MB-231, 48 h
[34] = system: Hs-578T; test: Cytotoxicity against human Hs 578T cells assessed as cell growth at 1 uM after 48 hrs by SRB assay relative to control; conditions: read-out: Activity
[35] = system: K562; test: Cytotoxicity against human K562 cells assessed as cell growth at 1 uM after 48 hrs by SRB assay relative to control; conditions: K562, 48 h, read-out: Activity
[36] = system: DU-145; test: Cytotoxicity against human DU145 cells assessed as cell growth at 100 uM after 48 hrs by SRB assay relative to control; conditions: DU-145, 48 h, read-out: Activity
[37] = system: NCI-H226; test: Cytotoxicity against human NCI-H226 cells assessed as cell growth at 0.1 uM after 48 hrs by SRB assay relative to control; conditions: NCI-H226, 48 h, read-out: Activity

## Cn1cc(C2=C(c3cn(C)c4ncccc34)C(=O)NC2=O)c2ccccc21
[1]
  GI50: 3.8 µM
  TGI: 22 µM
[2]
  growth at 0.01 µM: 106%
[3]
  growth at 1 µM: 91%
[4]
  GI50: 4.23 µM
  TGI: 39.9 µM
[5]
  growth at 100 µM: -19%
[6]
  growth at 0.1 µM: 100%
[7]
  growth at 0.1 µM: 73%
[8]
  growth at 0.01 µM: 97%
[9]
  growth at 100 µM: -36%
[10]
  growth at 100 µM: -94%
[11]
  growth at 1 µM: 27%
[12]
  GI50: 4.1 µM
  TGI: 27.5 µM
[13]
  growth at 1 µM: 117%
[14]
  growth at 100 µM: 2%
[15]
  growth at 0.01 µM: 100%
[16]
  growth at 0.01 µM: 100%
[17]
  GI50: 3.07 µM
  TGI: 20.6 µM
[18]
  growth at 0.01 µM: 107%
[19]
  growth at 0.01 µM: 99%
[20]
  growth at 1 µM: 84%
[21]
  growth at 0.01 µM: 100%
[22]
  growth at 0.1 µM: 93%
[23]
  growth at 0.1 µM: 102%
[24]
  growth at 0.1 µM: 107%
[25]
  GI50: 2.37 µM
  TGI: 30.3 µM
[26]
  growth at 100 µM: -16%
[27]
  growth at 100 µM: -19%
[28]
  GI50: 1.04 µM
  TGI: 18.4 µM
[29]
  growth at 0.1 µM: 107%
[30]
  growth at 1 µM: 78%
[31]
  growth at 1 µM: 101%
[32]
  growth at 1 µM: 83%
[33]
  GI50: 4.67 µM
  TGI: 38.8 µM
[34]
  growth at 1 µM: 48%
[35]
  growth at 1 µM: 76%
[36]
  growth at 100 µM: -28%
[37]
  growth at 0.1 µM: 91%

## N#CCCCCCn1cc(C2=C(c3cn(CCCCCC#N)c4ccccc34)C(=O)N(O)C2=O)c2ccccc21
[1]
  GI50: 5.05 µM
  LC50: > 100 µM
  TGI: 33 µM
[2]
  growth at 0.01 µM: 102%
[3]
  growth at 1 µM: 91%
[4]
  GI50: 12.3 µM
  LC50: > 100 µM
  TGI: > 100 µM
[5]
  growth at 100 µM: 5%
[6]
  growth at 0.1 µM: 99%
[7]
  growth at 0.1 µM: 82%
[8]
  growth at 0.01 µM: 102%
[9]
  growth at 100 µM: -26%
[10]
  growth at 100 µM: -80%
[11]
  growth at 1 µM: 70%
[12]
  GI50: 5.08 µM
  LC50 (concentration killing 50% of cells): > 100 µM
  TGI: 70.8 µM
[13]
  growth at 1 µM: 104%
[14]
  growth at 100 µM: 3%
[15]
  growth at 0.01 µM: 99%
[16]
  growth at 0.01 µM: 93%
[17]
  GI50: 10.2 µM
  LC50: > 100 µM
  TGI: 40.7 µM
[18]
  growth at 0.01 µM: 101%
[19]
  growth at 0.01 µM: 96%
[20]
  growth at 1 µM: 100%
[21]
  growth at 0.01 µM: 95%
[22]
  growth at 0.1 µM: 101%
[23]
  growth at 0.1 µM: 103%
[24]
  growth at 0.1 µM: 103%
[25]
  GI50: 4.15 µM
  LC50: > 100 µM
  TGI: 60.5 µM
[26]
  growth at 100 µM: -8%
[27]
  growth at 100 µM: -34%
[28]
  GI50: 3.55 µM
  LC50: > 100 µM
  TGI: 9.48 µM
[29]
  growth at 0.1 µM: 97%
[30]
  growth at 1 µM: 106%
[31]
  growth at 1 µM: 99%
[32]
  growth at 1 µM: 97%
[33]
  GI50: 4.26 µM
  LC50 (50% lethal concentration): > 100 µM
  TGI: 64.7 µM
[34]
  growth at 1 µM: 88%
[35]
  growth at 1 µM: 94%
[36]
  growth at 100 µM: 12%
[37]
  growth at 0.1 µM: 96%
